# According to the NIST ThermoML archive (doi:10.1016/j.fluid.2018.09.024):
# Numbers after ± are expanded uncertainties.
# Test: activity coefficient (dimensionless); of the first substance listed, at infinite dilution; xn = mol fraction of the nth substance listed
# Details: 318.15 K; 101.33 kPa; Liquid; Chromatography; x1 = 0
row,Compound,activity coefficient
1,CCC(C)(C)OC [2-methoxy-2-methylbutane] + CCCCCCCCCCCC[N+](C)(C)CCOc1ccccc1.O=S(=O)([N-]S(=O)(=O)C(F)(F)F)C(F)(F)F,1.22 ± 0.08
2,COC(C)(C)C [2-methoxy-2-methylpropane] + CCCCCCCCCCCC[N+](C)(C)CCOc1ccccc1.O=S(=O)([N-]S(=O)(=O)C(F)(F)F)C(F)(F)F,1.03 ± 0.06
3,CC(C)CO [2-methyl-1-propanol] + CCCCCCCCCCCC[N+](C)(C)CCOc1ccccc1.O=S(=O)([N-]S(=O)(=O)C(F)(F)F)C(F)(F)F,1.4 ± 0.09
4,CC(C)(C)O [2-methylpropan-2-ol] + CCCCCCCCCCCC[N+](C)(C)CCOc1ccccc1.O=S(=O)([N-]S(=O)(=O)C(F)(F)F)C(F)(F)F,1.14 ± 0.07
5,CCC(C)CC [3-methylpentane] + CCCCCCCCCCCC[N+](C)(C)CCOc1ccccc1.O=S(=O)([N-]S(=O)(=O)C(F)(F)F)C(F)(F)F,2.74 ± 0.19
6,C=C(C)c1ccccc1 [(1-methylethenyl)benzene] + CCCCCCCCCCCC[N+](C)(C)CCOc1ccccc1.O=S(=O)([N-]S(=O)(=O)C(F)(F)F)C(F)(F)F,0.784 ± 0.051
7,CC(C)=O [acetone] + CCCCCCCCCCCC[N+](C)(C)CCOc1ccccc1.O=S(=O)([N-]S(=O)(=O)C(F)(F)F)C(F)(F)F,0.331 ± 0.032
8,CC#N [acetonitrile] + CCCCCCCCCCCC[N+](C)(C)CCOc1ccccc1.O=S(=O)([N-]S(=O)(=O)C(F)(F)F)C(F)(F)F,0.473 ± 0.037
9,c1ccccc1 [benzene] + CCCCCCCCCCCC[N+](C)(C)CCOc1ccccc1.O=S(=O)([N-]S(=O)(=O)C(F)(F)F)C(F)(F)F,0.569 ± 0.041
10,CCCCO [butan-1-ol] + CCCCCCCCCCCC[N+](C)(C)CCOc1ccccc1.O=S(=O)([N-]S(=O)(=O)C(F)(F)F)C(F)(F)F,1.38 ± 0.09
11,CCC(C)O (stereo unspecified) [butan-2-ol] + CCCCCCCCCCCC[N+](C)(C)CCOc1ccccc1.O=S(=O)([N-]S(=O)(=O)C(F)(F)F)C(F)(F)F,1.23 ± 0.08
12,CCCC=O [butanal] + CCCCCCCCCCCC[N+](C)(C)CCOc1ccccc1.O=S(=O)([N-]S(=O)(=O)C(F)(F)F)C(F)(F)F,0.711 ± 0.047
13,C1CCCCCC1 [cycloheptane] + CCCCCCCCCCCC[N+](C)(C)CCOc1ccccc1.O=S(=O)([N-]S(=O)(=O)C(F)(F)F)C(F)(F)F,2.26 ± 0.15
14,C1CCCCC1 [cyclohexane] + CCCCCCCCCCCC[N+](C)(C)CCOc1ccccc1.O=S(=O)([N-]S(=O)(=O)C(F)(F)F)C(F)(F)F,2.02 ± 0.14
15,C1=CCCCC1 [cyclohexene] + CCCCCCCCCCCC[N+](C)(C)CCOc1ccccc1.O=S(=O)([N-]S(=O)(=O)C(F)(F)F)C(F)(F)F,1.47 ± 0.1

# Same assay, conditions: 328.15 K; 101.33 kPa; Liquid; Chromatography; x1 = 0
row,Compound,activity coefficient
1,CCC(C)(C)OC [2-methoxy-2-methylbutane] + CCCCCCCCCCCC[N+](C)(C)CCOc1ccccc1.N#C[N-]C#N,2.49 ± 0.17
2,CCC(C)(C)OC [2-methoxy-2-methylbutane] + CCCCCCCCCCCC[N+](C)(C)CCOc1ccccc1.O=S(=O)([N-]S(=O)(=O)C(F)(F)F)C(F)(F)F,1.29 ± 0.08
3,COC(C)(C)C [2-methoxy-2-methylpropane] + CCCCCCCCCCCC[N+](C)(C)CCOc1ccccc1.N#C[N-]C#N,2.28 ± 0.16
4,COC(C)(C)C [2-methoxy-2-methylpropane] + CCCCCCCCCCCC[N+](C)(C)CCOc1ccccc1.O=S(=O)([N-]S(=O)(=O)C(F)(F)F)C(F)(F)F,1.09 ± 0.07
5,CC(C)CO [2-methyl-1-propanol] + CCCCCCCCCCCC[N+](C)(C)CCOc1ccccc1.N#C[N-]C#N,0.451 ± 0.036
6,CC(C)CO [2-methyl-1-propanol] + CCCCCCCCCCCC[N+](C)(C)CCOc1ccccc1.O=S(=O)([N-]S(=O)(=O)C(F)(F)F)C(F)(F)F,1.33 ± 0.09
7,CC(C)(C)O [2-methylpropan-2-ol] + CCCCCCCCCCCC[N+](C)(C)CCOc1ccccc1.N#C[N-]C#N,0.539 ± 0.039
8,CC(C)(C)O [2-methylpropan-2-ol] + CCCCCCCCCCCC[N+](C)(C)CCOc1ccccc1.O=S(=O)([N-]S(=O)(=O)C(F)(F)F)C(F)(F)F,1.1 ± 0.07
9,CCC(C)CC [3-methylpentane] + CCCCCCCCCCCC[N+](C)(C)CCOc1ccccc1.N#C[N-]C#N,5.3 ± 0.36
10,CCC(C)CC [3-methylpentane] + CCCCCCCCCCCC[N+](C)(C)CCOc1ccccc1.O=S(=O)([N-]S(=O)(=O)C(F)(F)F)C(F)(F)F,2.81 ± 0.19
11,C=C(C)c1ccccc1 [(1-methylethenyl)benzene] + CCCCCCCCCCCC[N+](C)(C)CCOc1ccccc1.N#C[N-]C#N,1.11 ± 0.07
12,C=C(C)c1ccccc1 [(1-methylethenyl)benzene] + CCCCCCCCCCCC[N+](C)(C)CCOc1ccccc1.O=S(=O)([N-]S(=O)(=O)C(F)(F)F)C(F)(F)F,0.831 ± 0.054
13,CC(C)=O [acetone] + CCCCCCCCCCCC[N+](C)(C)CCOc1ccccc1.N#C[N-]C#N,0.721 ± 0.048
14,CC(C)=O [acetone] + CCCCCCCCCCCC[N+](C)(C)CCOc1ccccc1.O=S(=O)([N-]S(=O)(=O)C(F)(F)F)C(F)(F)F,0.353 ± 0.032
15,CC#N [acetonitrile] + CCCCCCCCCCCC[N+](C)(C)CCOc1ccccc1.N#C[N-]C#N,0.756 ± 0.05
16,CC#N [acetonitrile] + CCCCCCCCCCCC[N+](C)(C)CCOc1ccccc1.O=S(=O)([N-]S(=O)(=O)C(F)(F)F)C(F)(F)F,0.489 ± 0.037

row,Compound,activity coefficient
1,c1ccccc1 [benzene] + CCCCCCCCCCCC[N+](C)(C)CCOc1ccccc1.N#C[N-]C#N,0.835 ± 0.054
2,c1ccccc1 [benzene] + CCCCCCCCCCCC[N+](C)(C)CCOc1ccccc1.O=S(=O)([N-]S(=O)(=O)C(F)(F)F)C(F)(F)F,0.6 ± 0.042
3,CCCCO [butan-1-ol] + CCCCCCCCCCCC[N+](C)(C)CCOc1ccccc1.N#C[N-]C#N,0.463 ± 0.036
4,CCCCO [butan-1-ol] + CCCCCCCCCCCC[N+](C)(C)CCOc1ccccc1.O=S(=O)([N-]S(=O)(=O)C(F)(F)F)C(F)(F)F,1.32 ± 0.09
5,CCC(C)O (stereo unspecified) [butan-2-ol] + CCCCCCCCCCCC[N+](C)(C)CCOc1ccccc1.N#C[N-]C#N,0.495 ± 0.038
6,CCC(C)O (stereo unspecified) [butan-2-ol] + CCCCCCCCCCCC[N+](C)(C)CCOc1ccccc1.O=S(=O)([N-]S(=O)(=O)C(F)(F)F)C(F)(F)F,1.2 ± 0.08
7,CCCC=O [butanal] + CCCCCCCCCCCC[N+](C)(C)CCOc1ccccc1.N#C[N-]C#N,0.766 ± 0.05
8,CCCC=O [butanal] + CCCCCCCCCCCC[N+](C)(C)CCOc1ccccc1.O=S(=O)([N-]S(=O)(=O)C(F)(F)F)C(F)(F)F,0.742 ± 0.049
9,C1CCCCCC1 [cycloheptane] + CCCCCCCCCCCC[N+](C)(C)CCOc1ccccc1.N#C[N-]C#N,3.26 ± 0.22
10,C1CCCCCC1 [cycloheptane] + CCCCCCCCCCCC[N+](C)(C)CCOc1ccccc1.O=S(=O)([N-]S(=O)(=O)C(F)(F)F)C(F)(F)F,2.3 ± 0.16
11,C1CCCCC1 [cyclohexane] + CCCCCCCCCCCC[N+](C)(C)CCOc1ccccc1.N#C[N-]C#N,3.15 ± 0.21
12,C1CCCCC1 [cyclohexane] + CCCCCCCCCCCC[N+](C)(C)CCOc1ccccc1.O=S(=O)([N-]S(=O)(=O)C(F)(F)F)C(F)(F)F,2.05 ± 0.14
13,C1=CCCCC1 [cyclohexene] + CCCCCCCCCCCC[N+](C)(C)CCOc1ccccc1.N#C[N-]C#N,2.16 ± 0.15
14,C1=CCCCC1 [cyclohexene] + CCCCCCCCCCCC[N+](C)(C)CCOc1ccccc1.O=S(=O)([N-]S(=O)(=O)C(F)(F)F)C(F)(F)F,1.52 ± 0.1
15,C1CCCCCCC1 [cyclooctane] + CCCCCCCCCCCC[N+](C)(C)CCOc1ccccc1.N#C[N-]C#N,3.56 ± 0.24
